The supplement of paper PMC10307832

Assays:
Assay in all cases: relative viability (nuclei count vs DMSO), 5 days (fraction); higher = more cells survive
[1] = compound: Nc1nc(Nc2ccc3c(c2)CC[C@@H](N2CCCC2)CC3)nn1-c1cc2c(nn1)-c1ccccc1CCC2 [Bemcentinib] + CC(=O)Nc1cccc(-n2c(=O)n(C3CC3)c(=O)c3c(Nc4ccc(I)cc4F)n(C)c(=O)c(C)c32)c1 [Trametinib] (partner 0.02 µM)
Method in brief: (§1)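 Lung cancer cell lines were pin-tool dosed in 1536-well plates on the day after seeding, with either a lone drug or a fixed anchor-drug dose plus five library-drug doses (not always all listed) in √10 steps. Nuclei were counted on 4× images after 5 days. Relative viability is the ratio of treated-well to vehicle-well nuclei counts, with each value a median of duplicate plates.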

[2] = compound: Nc1nc(Nc2ccc3c(c2)CC[C@@H](N2CCCC2)CC3)nn1-c1cc2c(nn1)-c1ccccc1CCC2 [Bemcentinib] + CC(=O)c1c(C)c2cnc(Nc3ccc(N4CCNCC4)cn3)nc2n(C2CCCC2)c1=O [Palbociclib] (partner 0.5 µM)
Method in brief: as §1

[3] = compound: Nc1nc(Nc2ccc3c(c2)CC[C@@H](N2CCCC2)CC3)nn1-c1cc2c(nn1)-c1ccccc1CCC2 [Bemcentinib] + C[C@@H](Oc1cc(-c2cnn(C3CCNCC3)c2)cnc1N)c1c(Cl)ccc(F)c1Cl [Crizotinib] (partner 1 µM)
Method in brief: as §1

[4] = compound: CC1=CC=C(C=C1)C(=O)CN2C3=C(CCCC3)SC2=N [Pifithrin_alpha] + CS(=O)(=O)CCNCc1ccc(-c2ccc3ncnc(Nc4ccc(OCc5cccc(F)c5)c(Cl)c4)c3c2)o1 [Lapatinib] (partner 2 µM)
Method in brief: as §1

Cell Line	relative viability ([1]; first compound 0.04 µM)	relative viability ([1]; first compound 0.1265 µM)	relative viability ([1]; first compound 0.4 µM)	relative viability ([1]; first compound 1.265 µM)	relative viability ([1]; first compound 4 µM)	relative viability ([2]; first compound 0.04 µM)	relative viability ([2]; first compound 0.1265 µM)	relative viability ([2]; first compound 0.4 µM)	relative viability ([2]; first compound 1.265 µM)	relative viability ([2]; first compound 4 µM)	relative viability ([3]; first compound 0.04 µM)	relative viability ([3]; first compound 0.1265 µM)	relative viability ([3]; first compound 0.4 µM)	relative viability ([3]; first compound 1.265 µM)	relative viability ([3]; first compound 4 µM)	relative viability ([4]; first compound 1 µM)	relative viability ([4]; first compound 3.162 µM)	relative viability ([4]; first compound 10 µM)	relative viability ([4]; first compound 31.62 µM)	relative viability ([4]; first compound 100 µM)
NCI-H2347	0.254	0.312	0.232	0.307	0.302	0.438	0.467	0.385	0.443	0.443	0.783	1.01	0.612	0.669	0.627	0.811	0.911	0.902	0.705	0.911
LCLC-97TM1	0.206	0.195	0.2	0.232	0.2	0.253	0.283	0.231	0.261	0.264	0.267	0.475		0.376	0.259		1.17	0.79		1.38
NCI-H2126	0.639	0.583	0.588	0.581	0.585	0.342	0.334	0.364	0.385	0.357	1.05	1.1	1.01	1.03	1.02	0.614	0.643	0.68	0.536	0.658
NCI-H1944	0.399	0.43	0.463	0.431	0.468	0.324	0.379	0.304	0.327	0.329	1.13	1.11	1.17	1.18	1.1	0.755	0.67	0.517		0.598
HCC-15	0.389	0.365	0.44	0.368	0.42	0.767	0.976	0.739	0.728	0.737	0.834	0.91	0.908	0.871	0.92	0.636	1.05	0.734	0.666	0.845
NCI-H2405	0.6	0.732	0.621	0.7	0.722	0.555	0.549	0.528	0.59	0.583	0.826	0.922	0.87	0.853	0.914		0.975	0.991	0.882	0.975
COR-L 105	0.453	0.48	0.458	0.39	0.377	0.385	0.381	0.412	0.377	0.396	0.638	0.843	0.969	0.641	0.621	0.343	0.395	0.336	0.321	0.533
HCC-366	0.368	0.428	0.407	0.409	0.419	0.398	0.508	0.528	0.443	0.519	0.524	0.902	0.583	0.629	0.383	0.861	1.24	1.1		1.06
